A word on the GI50: it is the concentration at which growth is held to half of that of the control.

Bounds are passed on as bounds.

Data on 29 molecules can be found in patent US12558428B2, “Heterobifunctional compounds and their use in treating disease” (Halda Therapeutics OpCo, Inc., priority 2024, dated 2026).

Format in all cases: cell-based
For assay [1], the system named is T-Rex 293 cells having increased expression of estrogen receptor alpha protein. Kind of assay: Cellular growth inhibition assay, T-Rex 293 cells, (+) doxycycline. To be noted: T-REx-293, 72 h, Table 7-A; T-Rex 293 cells with doxycycline (increased ERα expression); 72 hours; CellTiter-Glo; read-out: (+) Dox GI50. The gist of the method: (§1)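 Viability read-out was CellTiter-Glo 2.0 luminescence after 72 h compound exposure, normalized to zero luminescence and fitted by four-parameter regression to give GI50. Cells were an ERα-inducible T-Rex 293 clone cultured with or without 3 ng/mL doxycycline in charcoal-stripped, phenol red-free medium.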
In general terms: In ATP-based viability assays light output follows the ATP content of the culture.

Assay [2] relates to MCF7 cells (ATCC #HTB-22). Kind of assay: Cellular growth inhibition assay, MCF7 cells purchased from ATCC. Conditions: Homo sapiens, MCF7, 144 h, Table 8-A; MCF7 cells purchased from ATCC; six days; CellTiter-Glo; read-out: GI50. The gist of the method:
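MCF7 cells in RPMI 1640 with 10% FBS and 0.2 U/ml insulin, seeded at 1,500 cells/well (ATCC) or 225 cells/well (ECACC). Compounds added 24 h later, then 6 days at 37° C. Viability by CellTiter-Glo 2.0 luminescence. GI50 from four-parameter fit.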

The test system of assay [3] is T-Rex 293 cells lacking increased expression of estrogen receptor alpha protein. Kind of assay: Cellular growth inhibition assay, T-Rex 293 cells, (−) doxycycline. To be noted: T-REx-293, 72 h, Table 7-A; T-Rex 293 cells without doxycycline (lacking increased ERα expression); 72 hours; CellTiter-Glo; read-out: (−) Dox GI50. The gist of the method: as §1

In the case of `Cc1sc2c(c1C)C(c1ccc(N3CC4(CCN(CC5CCN(c6ccc([C@@H]7c8ccc(O)cc8CC[C@@H]7c7ccccc7)cc6)CC5)CC4)C3)cc1)=N[C@@H](Cc1ncco1)c1nnc(C)n1-2` [III-161], the GI50 in assay [1] is less than 50 nM; in assay [2], less than 50 nM; in assay [3], 50 to 500 nM.

Consider `Cc1sc2c(c1C)C(c1ccc(N3CC(CN4CCN(CC5CN(c6ccc([C@@H]7c8ccc(O)cc8CC[C@@H]7c7ccccc7)cc6)C5)CC4)C3)cc1)=N[C@@H](Cc1ncco1)c1nnc(C)n1-2` [III-162], for which the GI50 in assay [1] was less than 50 nM; in assay [2], less than 50 nM; in assay [3] it was 50 to 500 nM.

On to `Cc1sc2c(c1C)C(c1ccc(N3CCC(CC4(O)CCN(c5ccc([C@@H]6c7ccc(O)cc7CC[C@@H]6c6ccccc6)cc5)CC4)CC3)cc1)=N[C@H](Cc1ncco1)c1nnc(C)n1-2` [III-163], for which the values for the GI50 in assay [1], in assay [2] and in assay [3] were more than 2500 nM, 50 to 500 nM and more than 2500 nM, respectively.

Consider `Cc1sc2c(c1C)C(c1ccc(N3CCC(CC4(O)CCN(c5ccc([C@@H]6c7ccc(O)cc7CC[C@@H]6c6ccccc6)cc5)CC4)CC3)cc1)=N[C@@H](Cc1ncco1)c1nnc(C)n1-2` [III-164], for which the figures for the GI50 in assay [1], in assay [2] and in assay [3] were less than 50 nM, less than 50 nM and 50 to 500 nM, respectively.

As to `Cc1sc2c(c1C)C(c1ccc(N3CC(C(=O)N4CCN(CC5CN(c6ccc([C@@H]7c8ccc(O)cc8CC[C@@H]7c7ccccc7)cc6)C5)CC4)C3)cc1)=N[C@@H](C)c1nnc(C)n1-2` [III-165], the GI50 in assay [1] was less than 50 nM; in assay [2] it was less than 50 nM; in assay [3], 50 to 500 nM.

In the case of `Cc1sc2c(c1C)C(c1ccc(N3CC(CN4CCN(CC5(O)CN(c6ccc([C@@H]7c8ccc(O)cc8CC[C@@H]7c7ccccc7)cc6)C5)CC4)C3)cc1)=N[C@@H](C)c1nnc(C)n1-2` [III-166], the GI50 in assay [1] is less than 50 nM; in assay [2], 50 to 500 nM; in assay [3], 50 to 500 nM.

With `CC1=C(C)C2C(c3ccc(N4CC(O)(CC5CCN(c6ccc([C@@H]7c8ccc(O)cc8CC[C@@H]7c7ccccc7)cc6)CC5)C4)cc3)=N[C@@H](Cc3ncco3)c3nnc(C)n3C2S1` (stereo partly drawn) [III-167], the values for the GI50 in assay [1], in assay [2] and in assay [3] were less than 50 nM, less than 50 nM and 50 to 500 nM, respectively.

As for `Cc1sc2c(c1C)C(c1ccc(N3CC(C(=O)N4CCN(CC5CN(c6ccc([C@@H]7c8ccc(O)cc8CC[C@@H]7c7ccccc7)cc6)C5)CC4)C3)cc1)=N[C@@H](Cc1ncco1)c1nnc(C)n1-2` [III-168], the GI50 is less than 50 nM in assay [1], less than 50 nM in assay [2] and 50 to 500 nM in assay [3].

As for `Cc1sc2c(c1C)C(c1ccc(C3CN(CC4(O)CCN(CC5CN(c6ccc([C@@H]7c8ccc(O)cc8CC[C@@H]7c7ccccc7)cc6)C5)CC4)C3)cc1)=N[C@@H](Cc1ncco1)c1nnc(C)n1-2` [III-169], the values for the GI50 in assay [1], in assay [2] and in assay [3] were less than 50 nM, 50 to 500 nM and 50 to 500 nM, respectively.

As for `Cc1sc2c(c1C)C(c1ccc(N3CCC(C(=O)N4CC(c5ccc([C@@H]6c7ccc(O)cc7CC[C@@H]6c6ccccc6)cc5)C4)CC3)cc1)=N[C@@H](C)c1nnc(C)n1-2` [III-170], the figures for the GI50 in assay [1], in assay [2] and in assay [3] were less than 50 nM, 50 to 500 nM and 50 to 500 nM, respectively.

Regarding `Cc1sc2c(c1C)C(c1ccc(C3CN(CC4(O)CCN(C(=O)C5CN(c6ccc([C@@H]7c8ccc(O)cc8CC[C@@H]7c7ccccc7)cc6)C5)CC4)C3)cc1)=N[C@@H](C)c1nnc(C)n1-2` [III-171], the GI50 in assay [1] is less than 50 nM; in assay [2], 50 to 500 nM; in assay [3] it was 50 to 500 nM.

As to `Cc1sc2c(c1C)C(c1ccc(C3CN(C(=O)C4CCN(CC5CN(c6ccc([C@@H]7c8ccc(O)cc8CC[C@@H]7c7ccccc7)cc6)C5)CC4)C3)cc1)=N[C@@H](C)c1nnc(C)n1-2` [III-172], the results for the GI50 in assay [1], in assay [2] and in assay [3] were less than 50 nM, 50 to 500 nM and 50 to 500 nM, respectively.

On to `Cc1sc2c(c1C)C(c1ccc(N3CC(CN4CCC(C(=O)N5CC(c6ccc([C@@H]7c8ccc(O)cc8CC[C@@H]7c7ccccc7)cc6)C5)CC4)C3)cc1)=N[C@@H](C)c1nnc(C)n1-2` [III-173], for which the GI50 in assay [1] is less than 50 nM; in assay [2] it was less than 50 nM; in assay [3] it was 50 to 500 nM.

As to `CC1=C(C)C2C(c3ccc(N4CCC(C(=O)N5CC(c6ccc([C@@H]7c8ccc(O)cc8CC[C@@H]7c7ccccc7)cc6)C5)CC4)cc3)N[C@@H](Cc3ncco3)c3nnc(C)n3C2S1` (stereo partly drawn) [III-174], the GI50 in assay [1] is less than 50 nM; in assay [2], less than 50 nM; in assay [3] it was 50 to 500 nM.

As for `Cc1sc2c(c1C)C(c1ccc(C3CN(C(=O)C4CCN(CC5CN(c6ccc([C@@H]7c8ccc(O)cc8CC[C@@H]7c7ccccc7)cc6)C5)CC4)C3)cc1)=N[C@@H](Cc1ncco1)c1nnc(C)n1-2` [III-175], the results for the GI50 in assay [1], in assay [2] and in assay [3] were less than 50 nM, less than 50 nM and 50 to 500 nM, respectively.

Turning to `Cc1sc2c(c1C)C(c1ccc(N3CC(CN4CCC(C(=O)N5CC(c6ccc([C@@H]7c8ccc(O)cc8CC[C@@H]7c7ccccc7)cc6)C5)CC4)C3)cc1)=N[C@@H](Cc1ncco1)c1nnc(C)n1-2` [III-176], the GI50 was less than 50 nM in assay [1], less than 50 nM in assay [2] and 50 to 500 nM in assay [3].

`Cc1sc2c(c1C)C(c1ccc(N3CC(CN4CCC(O)(CN5CC(c6ccc([C@@H]7c8ccc(O)cc8CC[C@@H]7c7ccccc7)cc6)C5)CC4)C3)cc1)=N[C@@H](C)c1nnc(C)n1-2` [III-177]: the GI50 in assay [1] was less than 50 nM; in assay [2], 50 to 500 nM; in assay [3] it was 50 to 500 nM.

On to `Cc1sc2c(c1C)C(c1ccc(N3CC(CC4(O)CCN(c5ccc([C@@H]6c7ccc(O)cc7CC[C@@H]6c6ccccc6)cc5)CC4)C3)cc1)=N[C@@H](Cc1ncco1)c1nnc(C)n1-2` [III-178], for which the concentration for 50% growth inhibition (GI50) is less than 50 nM in assay [1], less than 50 nM in assay [2] and 50 to 500 nM in assay [3].

`Cc1sc2c(c1C)C(c1ccc(N3CC(CN4CCN(C(=O)C5CN(c6ccc([C@@H]7c8ccc(O)cc8CC[C@@H]7c7ccccc7)cc6)C5)CC4)C3)cc1)=N[C@@H](Cc1ncco1)c1nnc(C)n1-2` [III-179]: the GI50 in assay [1], in assay [2] and in assay [3] was less than 50 nM each time.

For the molecule `Cc1sc2c(c1C)C(c1ccc(N3CC(CN4CCC(O)(CN5CC(c6ccc([C@@H]7c8ccc(O)cc8CC[C@@H]7c7ccccc7)cc6)C5)CC4)C3)cc1)=N[C@@H](Cc1ncco1)c1nnc(C)n1-2` [III-180], the GI50 is less than 50 nM in assay [1], less than 50 nM in assay [2] and 50 to 500 nM in assay [3].

For `Cc1sc2c(c1C)C(c1ccc(N3CC(O)(CN4CCN(CC5CN(c6ccc([C@@H]7c8ccc(O)cc8CC[C@@H]7c7ccccc7)cc6)C5)CC4)C3)cc1)=N[C@@H](Cc1ncco1)c1nnc(C)n1-2` [III-181], the GI50 in assay [1] is less than 50 nM; in assay [2], less than 50 nM; in assay [3], 50 to 500 nM.

For the molecule `Cc1sc2c(c1C)C(c1ccc(N3CCC(O)(CN4CCN(c5ccc([C@@H]6c7ccc(O)cc7CC[C@@H]6c6ccc(F)cc6F)cc5)CC4)CC3)cc1)=N[C@@H](C)c1nnc(C)n1-2` [III-182], the GI50 in assay [1] was less than 50 nM; in assay [2] it was 50 to 500 nM; in assay [3] it was 500 to 2500 nM.

In the case of `Cc1sc2c(c1C)C(c1ccc(N3CCC(O)(CN4CCN(c5ccc([C@H]6c7ccc(O)cc7CC[C@H]6c6ccc(F)cc6F)cc5)CC4)CC3)cc1)=N[C@@H](C)c1nnc(C)n1-2` [III-183], the results for the GI50 in assay [1], in assay [2] and in assay [3] were less than 50 nM, 50 to 500 nM and 500 to 2500 nM, respectively.

As for `Cc1sc2c(c1C)C(c1ccc(N3CCC(O)(CN4CCN(c5ccc([C@H]6c7ccc(O)cc7CC[C@H]6c6ccc(F)cc6)cc5)CC4)CC3)cc1)=N[C@@H](C)c1nnc(C)n1-2` [III-184], the GI50 in assay [1] is less than 50 nM; in assay [2] it was 50 to 500 nM; in assay [3], 50 to 500 nM.

`Cc1sc2c(c1C)C(c1ccc(N3CCC(O)(CN4CCN(c5ccc([C@@H]6c7ccc(O)cc7CC[C@@H]6c6ccc(F)cc6)cc5)CC4)CC3)cc1)=N[C@@H](C)c1nnc(C)n1-2` [III-185]: the GI50 in assay [1] was less than 50 nM; in assay [2] it was less than 50 nM; in assay [3] it was 500 to 2500 nM.

Take `Cc1sc2c(c1C)C(c1ccc(N3CCC(O)(CN4CCN(c5cc(F)c([C@@H]6c7ccc(O)cc7CC[C@@H]6c6ccccc6)c(F)c5)CC4)CC3)cc1)=N[C@@H](C)c1nnc(C)n1-2` [III-186]: the GI50 was less than 50 nM in assay [1], less than 50 nM in assay [2] and 500 to 2500 nM in assay [3].

As to `Cc1sc2c(c1C)C(c1ccc(N3CCC(O)(CN4CCN(c5cc(F)c([C@H]6c7ccc(O)cc7CC[C@H]6c6ccccc6)c(F)c5)CC4)CC3)cc1)=N[C@@H](C)c1nnc(C)n1-2` [III-187], the figures for the GI50 in assay [1], in assay [2] and in assay [3] were less than 50 nM, 50 to 500 nM and 50 to 500 nM, respectively.

Take `Cc1sc2c(c1C)C(c1ccc(N3CCC(O)(CN4CCN(c5ccc([C@@H]6c7ccc(C(=O)O)cc7CC[C@@H]6c6ccccc6)cc5)CC4)CC3)cc1)=N[C@@H](C)c1nnc(C)n1-2` [III-188]: the GI50 is less than 50 nM in assay [1], 50 to 500 nM in assay [2] and 50 to 500 nM in assay [3].

`Cc1sc2c(c1C)C(c1ccc(N3CCC(O)(CN4CCN(c5ccc([C@H]6c7ccc(C(=O)O)cc7CC[C@H]6c6ccccc6)cc5)CC4)CC3)cc1)=N[C@@H](C)c1nnc(C)n1-2` [III-189]: the GI50 in assay [1] is more than 2500 nM; in assay [2], 50 to 500 nM; in assay [3] it was more than 2500 nM.
